Results published in DBAASP.
≈ marks a conversion by molar mass, not a printed value. Where “and” joins values, the source holds several entries; their conditions need not be identical. Equal values may be shown once. One block for each molecule: values may come before it.

Key:
Assay in all cases: ≥ marks a high value that may be exact or a test limit, other limits are often not marked, values filed in µg/mL are converted to µM
Candida albicans = test system: Candida albicans
[1] = test system: Pseudomonas aeruginosa ATCC 27853
[2] = test system: Staphylococcus aureus ATCC 49476
Staphylococcus aureus MR = test system: Staphylococcus aureus MR
[3] = test system: Candida albicans ATCC 10231
[4] = test system: Cryptococcus neoformans ATCC 32264
[5] = test system: Escherichia coli ATCC 25922
Escherichia coli = test system: Escherichia coli
[6] = test system: Salmonella enterica subsp. enterica serovar Enteritidis
Salmonella sp. = test system: Salmonella sp.
[7] = test system: Staphylococcus aureus ATCC 29213
[8] = test system: Staphylococcus aureus ATCC 43300
Yersinia enterocolitica = test system: Yersinia enterocolitica
[9] = test system: Aeromonas veronii ATCC 35624
Aeromonas veronii CL0901 = test system: Aeromonas veronii CL0901
[10] = test system: Aeromonas veronii X-1-06909
[11] = test system: Candida albicans CMCC 98001
[12] = test system: Escherichia coli CVCC 1515
[13] = test system: Escherichia coli CVCC 195
[14] = test system: Escherichia coli CVCC 25922
[15] = test system: Escherichia coli CVCC O157
[16] = test system: Pseudomonas aeruginosa CICC 21630
[17] = test system: Salmonella enterica subsp. enterica serovar Enteritidis CVCC 3377
[18] = test system: Salmonella enterica subsp. enterica serovar Pullorum CVCC 1789
[19] = test system: Salmonella enterica subsp. enterica serovar Pullorum CVCC 1809
[20] = test system: Salmonella enterica subsp. enterica serovar Pullorum CVCC 533
[21] = test system: Salmonella enterica subsp. enterica serovar Typhimurium ATCC 14028
[22] = test system: Staphylococcus aureus ATCC 25923
[23] = test system: Staphylococcus aureus ATCC 546
[24] = test system: Staphylococcus hyicus NCTC 10350
Staphylococcus hyicus = test system: Staphylococcus hyicus
[25] = test system: Aspergillus flavus KCTC 6905
[26] = test system: Aspergillus fumigatus KCTC 6145
[27] = test system: Candida krusei CCARM 14017
[28] = test system: Candida parapsilosis CCARM 14016
[29] = test system: Candida tropicalis KCTC 7221
[30] = test system: Fusarium verticillioides KCTC 6149
[31] = test system: Trichosporon beigelii KCTC 7707
[32] = test system: Acinetobacter baumannii ATCC 7978
[33] = test system: Enterococcus faecium E007
[34] = test system: Klebsiella pneumoniae WGLW2
[35] = test system: Staphylococcus aureus ATCC 29231
[36] = test system: Staphylococcus aureus MW2

MIC (Candida albicans): 42.3 µM (≈ 128 µg/mL)
MIC [1]: 84.5 µM (≈ 256 µg/mL)
MIC [2]: ≥ 42.3 µM
MIC (Staphylococcus aureus MR): ≥ 169 µM
Compound: CC[C@H](C)[C@H](NC(=O)[C@H](C)NC(=O)[C@H](CCCCN)NC(=O)CNC(=O)[C@H](C)NC(=O)[C@H](CO)NC(=O)[C@H](Cc1ccccc1)NC(=O)[C@H](CC(C)C)NC(=O)CNC(=O)CNC(=O)[C@@H](NC(=O)[C@@H](NC(=O)[C@H](Cc1cnc[nH]1)NC(=O)[C@H](Cc1cnc[nH]1)NC(=O)[C@@H](NC(=O)[C@@H](N)Cc1ccccc1)[C@@H](C)CC)[C@@H](C)CC)[C@@H](C)CC)C(=O)N[C@@H](Cc1cnc[nH]1)C(=O)N[C@@H](CCCN=C(N)N)C(=O)N[C@@H](Cc1cnc[nH]1)C(=O)N[C@@H](Cc1cnc[nH]1)C(=O)N[C@@H](CCCN=C(N)N)C(=O)N[C@@H](CCCN=C(N)N)C(=O)N[C@@H](CCCN=C(N)N)C(=O)N[C@@H](CCCN=C(N)N)C(=O)N[C@@H](CCCN=C(N)N)C(=O)O [FIHHIIGGLFSAGKAIHRHHRRRRR]

MIC [3]: 50 µM (≈ 70.7 µg/mL)
MIC [4]: 25 µM (≈ 35.3 µg/mL)
MIC [5]: > 50 µM
MIC (Escherichia coli): 44.7 µM (≈ 63.2 µg/mL)
MIC [1]: > 50 µM
MIC [6]: ≥ 50 µM
MIC (Salmonella sp.): 30 µM (≈ 42.4 µg/mL)
MIC [7]: > 50 µM
MIC [8]: > 50 µM
MIC (Yersinia enterocolitica): ≥ 50 µM
Compound: CC[C@H](C)[C@H](NC(=O)[C@H](CCC(N)=O)NC(=O)[C@@H](N)CCCN=C(N)N)C(=O)N[C@@H](CCCN=C(N)N)C(=O)N[C@@H](CCCN=C(N)N)C(=O)N[C@@H](Cc1c[nH]c2ccccc12)C(=O)N[C@@H](Cc1c[nH]c2ccccc12)C(=O)N[C@@H](CCC(N)=O)C(=O)N[C@@H](Cc1c[nH]c2ccccc12)C(N)=O [RQIRRWWQW]

MIC [11]: ≥ 50 µM
MIC [12]: 1.56 µM (≈ 4 µg/mL)
MIC [13]: 3.12 µM (≈ 7.99 µg/mL)
MIC [14]: 3.12 µM (≈ 7.99 µg/mL)
MIC [15]: 3.12 µM (≈ 7.99 µg/mL)
MIC [16]: 12.5 µM (≈ 32 µg/mL)
MIC [17]: 0.781 µM (≈ 2 µg/mL)
MIC [18]: 6.25 µM (≈ 16 µg/mL)
MIC [19]: 3.12 µM (≈ 7.99 µg/mL)
MIC [20]: 6.25 µM (≈ 16 µg/mL)
MIC [21]: 6.25 µM (≈ 16 µg/mL)
MIC [22]: 12.5 µM (≈ 32 µg/mL)
MIC [8]: 12.5 µM (≈ 32 µg/mL)
MIC [23]: 6.25 µM (≈ 16 µg/mL)
MIC [24]: 25 µM (≈ 63.9 µg/mL)
MIC (Staphylococcus hyicus): 12.5 µM (≈ 32 µg/mL)
Compound: CC(C)[C@H](N)C(=O)N[C@@H](Cc1ccccc1)C(=O)N[C@@H](C)C(=O)N[C@@H](Cc1c[nH]c2ccccc12)C(=O)N[C@@H](CC(N)=O)C(=O)N[C@H](C(=O)N[C@H]1CSSC[C@@H](C(=O)N[C@@H](Cc2cnc[nH]2)C(=O)N[C@@H](CCCN=C(N)N)C(=O)N[C@@H](CCCN=C(N)N)C(=O)N[C@@H](C)C(=O)N[C@@H](CC(N)=O)C(N)=O)NC(=O)[C@H](C(C)C)NC(=O)[C@H](CCCN=C(N)N)NC(=O)[C@H](C(C)C)NC(=O)[C@H](C(C)C)NC(=O)[C@H](CC(N)=O)NC(=O)[C@H](CCCN=C(N)N)NC(=O)[C@H](Cc2ccc(O)cc2)NC(=O)[C@H](C(C)C)NC1=O)C(C)C [VFAWNVCVYRNVVRVCHRRAN]
MIC [9]: 6.25 µM (≈ 16 µg/mL)
MIC (Aeromonas veronii CL0901): 12.5 µM (≈ 32 µg/mL)
MIC [10]: 12.5 µM (≈ 32 µg/mL)

MIC [25]: ≥ 32 µM and 12 µM
MIC [26]: 24 µM and 16 µM
MIC [27]: 6 µM and 4 µM
MIC [28]: ≥ 64 µM
MIC [29]: 2 µM and 1.5 µM
MIC [30]: 24 µM and 16 µM
MIC [31]: 2 µM (≈ 5.13 µg/mL)
Compound: CC[C@H](C)[C@H](NC(=O)CNC(=O)[C@H](CCC(N)=O)NC(=O)[C@H](C)NC(=O)[C@@H](NC(=O)[C@H](CCCCN)NC(=O)[C@H](CCCCN)NC(=O)[C@H](CC(C)C)NC(=O)[C@H](C)NC(=O)[C@H](CC(N)=O)NC(=O)[C@H](C)NC(=O)CN)C(C)C)C(=O)N[C@@H](Cc1cnc[nH]1)C(=O)N[C@@H](CCC(=O)O)C(=O)N[C@@H](C)C(=O)N[C@H](C(=O)N[C@@H](CCCCN)C(=O)N[C@@H](CC(C)C)C(=O)N[C@H](C(=O)N[C@@H](CC(N)=O)C(=O)N[C@@H](CC(N)=O)C(=O)N[C@@H](Cc1cnc[nH]1)C(=O)N[C@H](C(=O)N[C@@H](CCC(N)=O)C(N)=O)C(C)C)[C@@H](C)CC)[C@@H](C)CC [GANALKKVAQGIHEAIKLINNHVQ]

MIC [32]: ≥ 58.7 µM
MIC [33]: ≥ 58.7 µM
MIC [34]: 29.4 µM (≈ 64 µg/mL)
MIC [35]: 14.7 µM (≈ 32 µg/mL)
MIC [36]: 14.7 µM (≈ 32 µg/mL)
Compound: CC[C@H](C)[C@H](NC(=O)[C@H](CCCCN)NC(=O)[C@H](CCCCN)NC(=O)[C@H](CC(C)C)NC(=O)[C@@H](NC(=O)[C@H](CCCCN)NC(=O)[C@H](Cc1c[nH]c2ccccc12)NC(=O)[C@@H](N)CC(C)C)[C@@H](C)CC)C(=O)N[C@@H](Cc1c[nH]c2ccccc12)C(=O)N[C@@H](CCCN=C(N)N)C(=O)N[C@H](C(=O)N[C@@H](CC(C)C)C(=O)N[C@@H](CCCCN)C(=O)N[C@@H](CC(N)=O)C(=O)N[C@@H](Cc1c[nH]c2ccccc12)C(=O)N[C@@H](CCCN=C(N)N)C(=O)O)C(C)C [LWKILKKIWRVLKNWR]
